Consider five compounds from patent publication US12109220B2, “Compositions for use in the reduction of nociception in children” (SOCIETE DES PRODUITS NESTLE S.A., priority 2017, dated 2024).

The test concerns the target GPR35 (Homo sapiens, UniProt Q9HC97). Briefly: PathHunter β-Arrestin assay of GPR35 activation (DiscoverX). The note with it: for activation of GPR35 (in words): single HMOs, highest concentration tested 10 mM; for EC50: cell based β-arrestin recruitment, 3x dilutions from 10 mM, duplicate. It is filed as cell-based. The protocol:
Six human milk oligosaccharides (LNnT, LNT, 2-FL, diFL, 6′ SL and 3-SL) were sreened for their ability to activate the GPR35 receptor in an in vitro assay.
The GPR35 cell line was expanded from frozen stocks and cultured according to standard procedures. Cells were seeded in a total volume of 20 μL into white walled, 384-well microplates and incubated at 37° C. for the appropriate time prior to testing. All testing was done in duplicate.
HMO samples were shipped to DiscoverX as concentrated stocks in Phosphate Buffered saline. On the test day, a 5× compound working intermediate was prepared in PBS. Five μL of 5× sample was added to cells and incubated at room temperature for 3 to 5 hours.
Assay signal was generated through a single addition of 12.5 μL (50% v/v) of PathHunter Detection reagent cocktail, followed by one-hour incubation at room temperature. Microplates were read following signal generation with a PerkinElmer Envision™ instrument for chemiluminescent signal detection.
Zaprinast (which is known to be an activator of GPR35) was used as positive control.
Percentage activity was calculated using the following formula: % Activity=100%×(mean RLU of test sample−mean RLU of vehicle control)/(mean MAX control ligand−mean RLU of vehicle control).
Dose-responses were generated by iterative 3× dilutions of the highest concentration tested (10 mM).
The samples were diluted in 1×PBS (pH ˜7) at 5× concentrations and sent to DiscoverX. The GPR35 activation assay was performed as described in Example 2.
(Recruitment of arrestin is a read-out of receptor activation apart from second messengers.)

“Also recorded” adds a separate entry of the source.

Chain of GPR35 (Q9HC97 whole entry): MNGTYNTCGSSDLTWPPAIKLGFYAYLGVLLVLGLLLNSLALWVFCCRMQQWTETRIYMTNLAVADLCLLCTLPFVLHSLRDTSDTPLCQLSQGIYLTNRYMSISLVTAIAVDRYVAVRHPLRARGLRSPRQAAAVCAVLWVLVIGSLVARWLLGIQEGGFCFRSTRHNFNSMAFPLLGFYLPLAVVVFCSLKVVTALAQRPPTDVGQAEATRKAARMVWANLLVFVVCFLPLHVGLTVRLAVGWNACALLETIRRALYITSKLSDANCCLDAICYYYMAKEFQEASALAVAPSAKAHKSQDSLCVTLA
Chain of GPR35 (P32121 whole entry partner): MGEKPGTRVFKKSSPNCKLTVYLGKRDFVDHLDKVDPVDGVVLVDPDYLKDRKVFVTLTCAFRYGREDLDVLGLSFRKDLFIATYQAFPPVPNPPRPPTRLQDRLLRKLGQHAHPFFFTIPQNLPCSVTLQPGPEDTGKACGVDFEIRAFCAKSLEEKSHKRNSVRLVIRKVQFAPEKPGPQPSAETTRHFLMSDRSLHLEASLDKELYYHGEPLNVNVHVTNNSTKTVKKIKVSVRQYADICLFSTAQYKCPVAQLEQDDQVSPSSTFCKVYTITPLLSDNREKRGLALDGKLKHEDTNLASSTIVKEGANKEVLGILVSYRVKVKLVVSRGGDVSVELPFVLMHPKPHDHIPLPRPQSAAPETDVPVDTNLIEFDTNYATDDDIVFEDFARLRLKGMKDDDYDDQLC

With `CC(=O)N[C@H]1[C@H](O[C@H]2[C@@H](O)[C@@H](CO)O[C@@H](O[C@H]3[C@H](O)[C@@H](O)C(O)O[C@@H]3CO)[C@@H]2O)O[C@H](CO)[C@@H](O[C@@H]2O[C@H](CO)[C@H](O)[C@H](O)[C@H]2O)[C@@H]1O` (mixture of isomers) [LNnT, lacto-N-neotetraose], the “activation of GPR35 (in words)” value is given as “No activation; also recorded: do not activate”. With `CC(=O)N[C@H]1[C@H]([C@H](O)[C@H](O)CO)O[C@@](O[C@H]2[C@@H](O)[C@@H](CO)O[C@@H](O[C@H]3[C@H](O)[C@@H](O)C(O)O[C@@H]3CO)[C@@H]2O)(C(=O)O)C[C@@H]1O` (stereo partly shown) [3SL, 3′-sialyllactose], the “activation of GPR35 (in words)” value is listed as “No activation”. Moreover, the “activation of GPR35 (in words)” value (listed as 3-SL) is reported as “do not activate”. By EC50 is commonly meant the concentration needed to bring the measured effect to its halfway point. Low readings indicate higher potency in that assay, high ones lower potency in that assay. Turning to `CC(=O)N[C@H]1[C@H]([C@H](O)[C@H](O)CO)O[C@@](OC[C@H]2O[C@@H](O[C@H]3[C@H](O)[C@@H](O)[C@H](O)O[C@@H]3CO)[C@H](O)[C@@H](O)[C@H]2O)(C(=O)O)C[C@@H]1O` [6′SL, 6′-sialyllactose], the concentration giving a half-maximal response (EC50) is 6.5 mM. That is a millimolar value. Compound `CC(=O)N[C@H]1[C@H](O[C@H]2[C@@H](O)[C@@H](CO)O[C@@H](O[C@H]3[C@H](O)[C@@H](O)C(O)O[C@@H]3CO)[C@@H]2O)O[C@H](CO)[C@@H](O)[C@@H]1O[C@@H]1O[C@H](CO)[C@H](O)[C@H](O)[C@H]1O` (stereo partly shown) [LNT, lacto-N-tetraose] registered a concentration giving a half-maximal response (EC50) of 4.5 mM. The EC50 values of the last two compounds are within 1.5-fold of each other.

In the case of `C[C@@H]1O[C@@H](O[C@H]2[C@H](O[C@H]3[C@H](O[C@@H]4O[C@@H](C)[C@@H](O)[C@@H](O)[C@@H]4O)[C@@H](O)C(O)O[C@@H]3CO)O[C@H](CO)[C@H](O)[C@@H]2O)[C@@H](O)[C@H](O)[C@@H]1O` (stereo partly shown) [diFL, difucosyllactose], the “activation of GPR35 (in words)” value is reported as “No activation”. For the same compound, the “activation of GPR35 (in words)” value (listed as difucosyllactose) is “do not activate”.
